Each molecule was assayed against T1, human GluN1/GluN2B NMDA receptors (Homo sapiens, UniProt Q13224) (assay: Cell-based calcium flux (FLIPR) assay on cloned human NR1/NR2B ion channels expressed in mammalian cells (standard and HTS buffer variants)). Settings: standard assay buffer (0.5 mM MgCl2 in dye loading buffer; 137 mM NaCl, 4 mM KCl in assay buffer), human GluN1/GluN2B, read-out: NR2B IC50 (μM) standard assay.
T1 construct: expressed in transfected cells
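Further: stable Tet-On inducible cell line, Ca2+ influx triggered by glutamate at about EC40 plus 10 µM glycine, fluorescent dye read-out over 5 min, normalized to control wells.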

T1 sequence (Q13224 27-1484, other chains not shown): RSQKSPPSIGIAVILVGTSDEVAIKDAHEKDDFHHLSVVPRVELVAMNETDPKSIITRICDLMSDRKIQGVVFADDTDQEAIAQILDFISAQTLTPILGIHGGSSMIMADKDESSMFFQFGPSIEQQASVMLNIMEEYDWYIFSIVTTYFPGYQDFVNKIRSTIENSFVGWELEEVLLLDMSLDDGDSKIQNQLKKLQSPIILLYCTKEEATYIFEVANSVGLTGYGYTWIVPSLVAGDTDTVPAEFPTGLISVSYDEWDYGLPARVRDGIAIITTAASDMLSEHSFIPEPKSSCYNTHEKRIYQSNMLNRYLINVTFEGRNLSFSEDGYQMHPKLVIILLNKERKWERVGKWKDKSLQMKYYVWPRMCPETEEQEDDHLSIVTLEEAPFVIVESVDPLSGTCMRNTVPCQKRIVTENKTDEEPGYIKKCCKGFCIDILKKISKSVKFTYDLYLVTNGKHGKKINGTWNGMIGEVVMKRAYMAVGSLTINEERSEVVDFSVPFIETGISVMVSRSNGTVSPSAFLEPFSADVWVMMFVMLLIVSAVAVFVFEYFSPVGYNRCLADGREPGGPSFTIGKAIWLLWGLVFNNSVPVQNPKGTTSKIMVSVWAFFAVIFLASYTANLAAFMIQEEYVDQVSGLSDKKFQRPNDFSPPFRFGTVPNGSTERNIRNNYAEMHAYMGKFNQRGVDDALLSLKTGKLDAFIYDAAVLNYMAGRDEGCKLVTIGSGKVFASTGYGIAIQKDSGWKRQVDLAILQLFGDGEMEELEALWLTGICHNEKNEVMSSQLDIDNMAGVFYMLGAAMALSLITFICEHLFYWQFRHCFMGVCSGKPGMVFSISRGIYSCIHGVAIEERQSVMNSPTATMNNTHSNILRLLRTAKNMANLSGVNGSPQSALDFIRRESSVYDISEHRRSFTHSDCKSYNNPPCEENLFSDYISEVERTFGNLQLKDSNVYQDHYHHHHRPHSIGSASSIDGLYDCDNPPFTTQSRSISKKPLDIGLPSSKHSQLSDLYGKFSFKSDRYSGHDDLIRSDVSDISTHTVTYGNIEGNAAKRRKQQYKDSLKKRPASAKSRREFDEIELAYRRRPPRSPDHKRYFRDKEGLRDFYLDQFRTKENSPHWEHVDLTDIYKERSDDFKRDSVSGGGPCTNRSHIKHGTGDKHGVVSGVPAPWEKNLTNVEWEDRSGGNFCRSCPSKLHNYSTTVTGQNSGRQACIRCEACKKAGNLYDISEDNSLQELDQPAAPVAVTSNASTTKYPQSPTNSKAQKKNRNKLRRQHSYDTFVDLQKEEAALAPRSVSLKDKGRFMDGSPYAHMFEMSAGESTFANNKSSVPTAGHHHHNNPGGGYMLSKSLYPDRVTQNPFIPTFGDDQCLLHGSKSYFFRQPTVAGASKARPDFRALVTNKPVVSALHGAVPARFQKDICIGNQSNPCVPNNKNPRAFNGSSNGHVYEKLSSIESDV

First: Cc1ccc(-c2cnc3c(c2)n(CC(=O)N2CCC2)c(=O)n3C)s1 [Example 326, 1-[2-(Azetidin-1-yl)-2-oxo-ethyl]-3-methyl-6-(5-methyl-2-thienyl)imidazo[4,5-b]pyridin-2-one]
Second: Cn1c(=O)n(CC(=O)N2CCCC2)c2cc(-c3ccc(C(F)(F)F)s3)cnc21 [Example 328, 3-Methyl-1-(2-oxo-2-pyrrolidin-1-yl-ethyl)-6-[5-(trifluoromethyl)-2-thienyl]imidazo[4,5-b]pyridin-2-one]
The IC50 of the first is 3.6-fold lower: 0.022 µM for the first, 0.079 µM for the second. The first is the more potent here.

Going from `Cn1c(=O)n(CC(=O)N2CC(F)C2)c2cc(-c3ccc(C(F)(F)F)s3)cnc21` [Example 327, 1-[2-(3-Fluoroazetidin-1-yl)-2-oxo-ethyl]-3-methyl-6-[5-(trifluoromethyl)-2-thienyl]imidazo[4,5-b]pyridin-2-one] to `Cn1c(=O)n(Cc2cccnc2)c2cc(-c3ccc(C(F)(F)F)s3)cnc21` [Example 364, 3-Methyl-1-(3-pyridylmethyl)-6-[5-(trifluoromethyl)-2-thienyl]imidazo[4,5-b]pyridin-2-one], the IC50 rises from 0.071 µM to 0.168 µM (2.4-fold).

Compared with `Cc1c(-c2cnc3[nH]c(=O)n(CC(=O)N4CCC4)c3c2)cccc1C(F)(F)F` [Example 329, 1-[2-(Azetidin-1-yl)-2-oxo-ethyl]-6-[2-methyl-3-(trifluoromethyl)phenyl]-3H-imidazo[4,5-b]pyridin-2-one], `CCC(=O)Cn1c(=O)[nH]c2ncc(-c3cccc(C)c3)cc21` [Example 332, 6-(m-Tolyl)-1-(2-oxobutyl)-3H-imidazo[4,5-b]pyridin-2-one] is 21-fold lower in IC50: 0.75 µM for the first, 0.036 µM for the second.

First: CCC(=O)Cn1c(=O)[nH]c2ncc(-c3ccc(F)c(F)c3)cc21 [Example 330, 6-(3,4-Difluorophenyl)-1-(2-oxobutyl)-3H-imidazo[4,5-b]pyridin-2-one]
Second: CCC(=O)Cn1c(=O)[nH]c2ncc(-c3ccc(F)c(C)c3)cc21 [Example 331, 6-(4-Fluoro-3-methyl-phenyl)-1-(2-oxobutyl)-3H-imidazo[4,5-b]pyridin-2-one]
The IC50 of the first is 3-fold lower: 0.004 µM for the first, 0.012 µM for the second.

Compared with `Cc1c(F)ccc(-c2cnc3c(c2)n(Cc2cccnc2)c(=O)n3C)c1F` [Example 339, 6-(2,4-Difluoro-3-methyl-phenyl)-3-methyl-1-(3-pyridylmethyl)imidazo[4,5-b]pyridin-2-one], `Cn1c(=O)n(Cc2cccnc2)c2cc(-c3ccc(F)c(F)c3F)cnc21` [Example 361, 3-Methyl-1-(3-pyridylmethyl)-6-(2,3,4-trifluorophenyl)imidazo[4,5-b]pyridin-2-one] is 45-fold higher in IC50: 0.034 µM for the first, 1.54 µM for the second. The first is the more potent here.

Compared with `Cc1cc(-c2cnc3c(c2)n(Cc2cncc(F)c2)c(=O)n3C)ccc1F` [Example 340, 6-(4-Fluoro-3-methyl-phenyl)-1-[(5-fluoro-3-pyridyl)methyl]-3-methyl-imidazo[4,5-b]pyridin-2-one], `Cn1c(=O)n(Cc2cncc(F)c2)c2cc(-c3ccc(F)c(F)c3)cnc21` [Example 343, 6-(3,4-Difluorophenyl)-1-[(5-fluoro-3-pyridyl)methyl]-3-methyl-imidazo[4,5-b]pyridin-2-one] is 4.9-fold higher in IC50: 0.052 µM for the first, 0.256 µM for the second.

First: Cc1c(F)ccc(-c2cnc3c(c2)n(Cc2cncc(F)c2)c(=O)n3C)c1F [Example 341, 6-(2,4-Difluoro-3-methyl-phenyl)-1-[(5-fluoro-3-pyridyl)methyl]-3-methyl-imidazo[4,5-b]pyridin-2-one]
Second: Cn1c(=O)n(Cc2cncc(F)c2)c2cc(-c3ccc(F)c(F)c3F)cnc21 [Example 347, 1-[(5-Fluoro-3-pyridyl)methyl]-3-methyl-6-(2,3,4-trifluorophenyl)imidazo[4,5-b]pyridin-2-one]
The IC50 of the first is 7.7-fold lower: 0.081 µM for the first, 0.621 µM for the second.

First: Cn1c(=O)n(Cc2cncc(F)c2)c2cc(-c3cccc(OC(F)F)c3)cnc21 [Example 342, 6-[3-(Difluoromethoxy)phenyl]-1-[(5-fluoro-3-pyridyl)methyl]-3-methyl-imidazo[4,5-b]pyridin-2-one]
Second: Cn1c(=O)n(Cc2cncc(F)c2)c2cc(-c3cccc(OC(F)(F)F)c3)cnc21 [Example 345, 1-[(5-Fluoro-3-pyridyl)methyl]-3-methyl-6-[3-(trifluoromethoxy)phenyl]imidazo[4,5-b]pyridin-2-one]
The IC50 of the first is 5.6-fold lower: 0.138 µM for the first, 0.778 µM for the second.

Going from `Cn1c(=O)n(Cc2cncc(F)c2)c2cc(-c3cc(F)c(F)c(F)c3)cnc21` [Example 344, 1-[(5-Fluoro-3-pyridyl)methyl]-3-methyl-6-(3,4,5-trifluorophenyl)imidazo[4,5-b]pyridin-2-one] to `Cn1c(=O)n(Cc2cncc(Cl)c2)c2cc(-c3cc(F)c(F)c(F)c3)cnc21` [Example 370, 1-[(5-Chloro-3-pyridyl)methyl]-3-methyl-6-(3,4,5-trifluorophenyl)imidazo[4,5-b]pyridin-2-one], the IC50 falls from 0.518 µM to 0.131 µM (4-fold). The second is the more potent here.

First: Cn1c(=O)n(Cc2cncc(F)c2)c2cc(-c3cccc(F)c3F)cnc21 [Example 346, 6-(2,3-Difluorophenyl)-1-[(5-fluoro-3-pyridyl)methyl]-3-methyl-imidazo[4,5-b]pyridin-2-one]
Second: Cn1c(=O)n(Cc2cncc(F)c2)c2cc(-c3cccc(Cl)c3F)cnc21 [Example 349, 6-(3-Chloro-2-fluoro-phenyl)-1-[(5-fluoro-3-pyridyl)methyl]-3-methyl-imidazo[4,5-b]pyridin-2-one]
The IC50 of the first is 2.1-fold higher: 0.225 µM for the first, 0.107 µM for the second. The second is the more potent here.

First: Cn1c(=O)n(Cc2cncc(F)c2)c2cc(-c3cccc(Cl)c3)cnc21 [Example 348, 6-(3-Chlorophenyl)-1-[(5-fluoro-3-pyridyl)methyl]-3-methyl-imidazo[4,5-b]pyridin-2-one]
Second: Cc1cccc(-c2cnc3c(c2)n(Cc2cncc(F)c2)c(=O)n3C)c1 [Example 350, 1-[(5-Fluoro-3-pyridyl)methyl]-3-methyl-6-(m-tolyl)imidazo[4,5-b]pyridin-2-one]
The IC50 of the first is 7.3-fold higher: 0.213 µM for the first, 0.029 µM for the second.

Compared with `Cn1c(=O)n(Cc2cncc(F)c2)c2cc(-c3ccc(Cl)c(Cl)c3)cnc21` [Example 351, 6-(3,4-Dichlorophenyl)-1-[(5-fluoro-3-pyridyl)methyl]-3-methyl-imidazo[4,5-b]pyridin-2-one], `Cc1cc(-c2cnc3c(c2)n(Cc2cncc(Cl)c2)c(=O)n3C)ccc1F` [Example 367, 1-[(5-Chloro-3-pyridyl)methyl]-6-(4-fluoro-3-methyl-phenyl)-3-methyl-imidazo[4,5-b]pyridin-2-one] is 2.1-fold lower in IC50: 0.251 µM for the first, 0.117 µM for the second. The second is the more potent here.

Going from `Cc1cccc(-c2cnc3c(c2)n(Cc2cncc(F)c2)c(=O)n3C)c1F` [Example 352, 6-(2-Fluoro-3-methyl-phenyl)-1-[(5-fluoro-3-pyridyl)methyl]-3-methyl-imidazo[4,5-b]pyridin-2-one] to `Cc1cccc(-c2cnc3c(c2)n(Cc2cccnc2)c(=O)n3C)c1F` [Example 357, 6-(2-Fluoro-3-methyl-phenyl)-3-methyl-1-(3-pyridylmethyl)imidazo[4,5-b]pyridin-2-one], the IC50 rises from 0.052 µM to 0.118 µM (2.3-fold).

Compared with `Cn1c(=O)n(Cc2cccnc2)c2cc(-c3cc(F)c(F)c(F)c3)cnc21` [Example 353, 3-Methyl-1-(3-pyridylmethyl)-6-(3,4,5-trifluorophenyl)imidazo[4,5-b]pyridin-2-one], `Cn1c(=O)n(Cc2cccnc2)c2cc(-c3cc(F)cc(F)c3)cnc21` [Example 354, 6-(3,5-Difluorophenyl)-3-methyl-1-(3-pyridylmethyl)imidazo[4,5-b]pyridin-2-one] is 7.2-fold higher in IC50: 0.144 µM for the first, 1.03 µM for the second. The first is the more potent here.

`Cn1c(=O)n(Cc2cccnc2)c2cc(-c3ccc(F)c(Cl)c3)cnc21` [Example 355, 6-(3-Chloro-4-fluoro-phenyl)-3-methyl-1-(3-pyridylmethyl)imidazo[4,5-b]pyridin-2-one] and `Cn1c(=O)n(Cc2cccnc2)c2cc(-c3ccc(F)c(C(F)(F)F)c3)cnc21` [Example 360, 6-[4-Fluoro-3-(trifluoromethyl)phenyl]-3-methyl-1-(3-pyridylmethyl)imidazo[4,5-b]pyridin-2-one] are within 1.5-fold of each other in IC50: 0.044 µM for the first, 0.034 µM for the second.

`Cc1cccc(-c2cnc3c(c2)n(Cc2cccnc2)c(=O)n3C)c1` [Example 356, 3-Methyl-6-(m-tolyl)-1-(3-pyridylmethyl)imidazo[4,5-b]pyridin-2-one] and `Cn1c(=O)n(Cc2cccnc2)c2cc(-c3cccc(C(F)(F)F)c3)cnc21` [Example 362, 3-Methyl-1-(3-pyridylmethyl)-6-[3-(trifluoromethyl)phenyl]imidazo[4,5-b]pyridin-2-one] are within 1.5-fold of each other in IC50: 0.07 µM for the first, 0.105 µM for the second.

Compared with `Cn1c(=O)n(Cc2cccnc2)c2cc(-c3cccc(C(F)(F)F)c3F)cnc21` [Example 358, 6-[2-Fluoro-3-(trifluoromethyl)phenyl]-3-methyl-1-(3-pyridylmethyl)imidazo[4,5-b]pyridin-2-one], `Cn1c(=O)n(Cc2cccnc2)c2cc(-c3cccc(Cl)c3F)cnc21` [Example 359, 6-(3-Chloro-2-fluoro-phenyl)-3-methyl-1-(3-pyridylmethyl)imidazo[4,5-b]pyridin-2-one] is 2-fold higher in IC50: 0.049 µM for the first, 0.096 µM for the second. The first is the more potent here.

First: Cn1c(=O)n(Cc2cccnc2)c2cc(-c3cccc(C(F)F)c3)cnc21 [Example 363, 6-[3-(Difluoromethyl)phenyl]-3-methyl-1-(3-pyridylmethyl)imidazo[4,5-b]pyridin-2-one]
Second: Cn1c(=O)n(Cc2cncc(Cl)c2)c2cc(-c3cccc(C(F)(F)F)c3)cnc21 [Example 366, 1-[(5-Chloro-3-pyridyl)methyl]-3-methyl-6-[3-(trifluoromethyl)phenyl]imidazo[4,5-b]pyridin-2-one]
The IC50 of the first is 8.2-fold lower: 0.053 µM for the first, 0.433 µM for the second.

Compared with `Cc1cc(-c2cnc3c(c2)n(Cc2cccnc2)c(=O)n3C)sc1Cl` [Example 365, 6-(5-Chloro-4-methyl-2-thienyl)-3-methyl-1-(3-pyridylmethyl)imidazo[4,5-b]pyridin-2-one], `Cc1c(F)ccc(-c2cnc3c(c2)n(Cc2cncc(Cl)c2)c(=O)n3C)c1F` [Example 368, 1-[(5-Chloro-3-pyridyl)methyl]-6-(2,4-difluoro-3-methyl-phenyl)-3-methyl-imidazo[4,5-b]pyridin-2-one] is 5.7-fold higher in IC50: 0.063 µM for the first, 0.356 µM for the second.

`Cn1c(=O)n(Cc2cncc(Cl)c2)c2cc(-c3ccc(F)c(F)c3)cnc21` [Example 369, 1-[(5-Chloro-3-pyridyl)methyl]-6-(3,4-difluorophenyl)-3-methyl-imidazo[4,5-b]pyridin-2-one] was tested, and the IC50 was 0.096 µM.

Reference: patent publication US11759455B2, “Substituted 1H-imidazo[4,5-b]pyridin-2(3H)-ones and their use as GLUN2B receptor modulators” (JANSSEN PHARMACEUTICA NV, priority 2016, dated 2023)
